Test results: patent US20040171823A1, “Polynucleotides and polypeptides associated with the NF-kappaB pathway” (priority 2003, published 2004)

System: NF-κB activation pathway
Test: Real-time PCR (TaqMan/SYBR Green) of target gene mRNA in LPS-stimulated THP-1 cells with NF-κB pathway inhibitors
Type: cell-based, human
Conditions: BMS-345541 10 μM, dexamethasone 100 nM; for MGC20791 expression (mRNA): all time points examined, FIG. 5D; for BCL-6 expression (mRNA): FIG. 5C
Description: Poly (A)^+ mRNA was isolated from THP-1 cells that were either unstimulated, or stimulated with 100 ng/ml LPS for two hours in the presence and absence of BMS-205820 (2 uM) using the Fast Track isolation kit (Invitrogen, Carlsbad, Calif.) according to manufacturer's instructions. RNA quality and quantity were evaluated using UV spectrometry and capillary electrophoresis with the RNA 6000 Assay 10 (Agilent). First-strand cDNA was synthesized using the SuperScript™ First-Strand Synthesis System for RT-PCR (Invitrogen) according to manufacturer's instructions.
PCR reactions were performed in a total volume of 40 ul containing master mix (SYBR Green I dye, 50 mM Tris-Cl pH 8.3, 75 mM KCl, DMSO, Rox reference dye, 5 mM MgCl2, 2 mM dNTP, 1 unit Platinum Taq High Fidelity enzyme), 0.5 uM 15 each of forward and reverse gene-specific primers, and cDNA (8 ul of a 1:36 dilution of the first strand reaction mix). For tissue expression analyses, PCR reactions included 2 ul of cDNA derived from the Human Multiple Tissue cDNA panel I and Human Immune System MTC Panel (Clontech, Palo Alto, Calif.). The amplification program consisted of a 10 minute incubation at 95° C., followed by 40 cycles of incubations at 95° C. for 15 seconds, 60° C. for 1 minute. The amplification was followed by melting curve analysis at 60° C. to determine the specificity of the amplification reaction. The data were analyzed using the TaqMan 5700 software with the threshold value set to 0.5. The message levels of GAPDH were used to normalize the amounts of cDNA for each reaction.
PolyA+ mRNA was isolated from THP1 cells that were either unstimulated, stimulated with LPS for 2 hours, or stimulated with LPS for 2 hours in the presence of the peptide BMS-205820 (2 μM). In some experiments, THP-1 cells were stimulated with LPS in the presence of the glucocorticoid dexamethasone (100 nM), and the IKK-2 inhibitor, BMS-345541 (10 μM). RNA quality and quantity were evaluated using UV spectrometry and capillary electrophoresis with the RNA 6000 Assay by Agilent. Five-hundred nanograms of polyA RNA was used for first-strand cDNA synthesis using the SuperScript™ First-Strand Synthesis System for RT-PCR (Life Technologies) following the manufacturer's instructions with 250 ng of random hexamers.
PCR Reactions were performed in a total volume of 40 μl. The master mix contained SYBR Green I Dye, 50 mM Tris-HCl pH8.3, 75 mM KCl, DMSO, Rox reference dye, 5 mM MgCl2, 2 mM dNTP, Platinum Taq High Fidelity (1U/reaction), and 0.5 μM of each primer. The cDNA was diluted 1:36 from the synthesis reaction and eight microliters was used in each PCR reaction. For tissue distribution analyses, two microliters of cDNA from the Human Multiple Tissue and Human Immune System MTC cDNA panels were used as templates. The amplification program consisted of a 10 minute incubation at 95° C. followed by forty cycles of incubations at 95° C. for 15 seconds and 60° C. for 1 minute. […] A negative control without cDNA template was run to assess the overall specificity.
A relative value for the initial target concentration in each reaction was determined using the TaqMan 5700 software. The threshold value was set to 0.5 to obtain cycle threshold values that were used to assign relative message levels for each target. The message levels of GAPDH were determined for each cDNA sample and were used to normalize all other genes tested from the same cDNA sample.

[1] = THP-1 cells stimulated with LPS

**Q.** How did the “MGC20791 expression (mRNA)” value [1] turn out when Cc1ccc2nc(NCCN)c3ncc(C)n3c2c1 [BMS-345541] was run?
**A.** significantly inhibited

**Q.** And the “Cytokine-Inducible Kinase (CNK) expression (mRNA)” value (THP-1 cells stimulated with LPS, all time points, FIG. 5A)?
**A.** potently inhibited

**Q.** And the “BCL-2 Like 11 expression (mRNA)” value (THP-1 cells stimulated with LPS, each time point, FIG. 5B)?
**A.** significantly inhibited expression at each time point below that detected in resting cells

**Q.** What about the “BCL-6 expression (mRNA)” value [1] of the same molecule?
**A.** significantly inhibited

**Q.** And the “Stat1 expression (mRNA)” value (THP-1 cells, 8 hours post LPS stimulation, FIG. 5E)?
**A.** significantly inhibited

**Q.** Which “MGC20791 expression (mRNA)” value [1] does the source give for C[C@@H]1C[C@H]2[C@@H]3CCC4=CC(=O)C=C[C@]4(C)[C@@]3(F)[C@@H](O)C[C@]2(C)[C@@]1(O)C(=O)CO [dexamethasone] here?
**A.** failed to inhibit

**Q.** And the “BCL-6 expression (mRNA)” value [1]?
**A.** failed to inhibit
